Reference: patent publication US8071645B2, “Systems and methods for treating human inflammatory and proliferative diseases and wounds, with fatty acid metabolism inhibitors and/or glycolytic inhibitors” (The Regents of the University of Colorado, priority 2003, dated 2011)

Assays:
Assay type in all cases: cell-based
[1] = system: cell-surface Fas on drug sensitive L1210 cells; experiment: cell-surface Fas expression on L1210 cells by flow cytometry
Description: Flow Cytometry. Cells were harvested, counted, and resuspended at 10^6 cells/100 μl of PBS containing 2.5% fetal calf serum in preparation for flow cytometric analysis. Cells were stained for intracellular H202 using 6-carboxy-2′,7′-dichlorodihydrofluorescein diacetate (DCF-DA, Molecular Probes, Eugene, Oreg.). Briefly, cells were incubated at 37° with 1 mM DCF-DA for 20 minutes, washed twice in PBS containing 2.5% fetal calf serum and analyzed flow cytometrically. Mitochondrial membrane potential was assessed using Mitotracker Red (CM-H2XROS, Molecular Probes, Eugene, Oreg.). […] The cells were incubated at 37° for 20 minutes, washed twice in PBS containing 2.5% fetal calf serum and analyzed flow cytometrically. Data were acquired on a Coulter Elite Epics or Excel flow cytometer (Coulter, Hialeah, Fla.) and analyzed with CellQuest software, (Becton Dickinson, San Jose, Calif.). […] Each sample population was classified for cell size (forward scatter) and complexity (side scatter), gated on a population of interest and evaluated using 5,000 cells. […]
Drug sensitive L1210 cells and drug resistant L1210/DDP cells were cultured with etomoxir for 24 hours (Tx indicates treatment with etomoxir). The level of cell-surface Fas was determined using fluorochrome conjugated anti-Fas antibodies and flow cytometry. The Fas levels are measured relative to a control for staining artifacts. […]

[2] = system: RD cells (rhabdomyosarcoma cells); experiment: percent death of RD cells by flow cytometry
Description: Dot plots as a function of live versus dead cells. The cells were cultured at a concentration of 0.5 to 1 million cells per ml. Cells were untreated or treated with etomoxir or 2-deoxy-D-glucose at a concentration of 2.5 mM at the indicated concentrations for either 24 or 48 hours. In additional experiments, under each of these culture conditions, the cells were cultured for 24 hours at which time point, polyclonal anti-UCP-2 was added at a 1:1000 dilution of stock provided by Alpha Diagnostics, San Antonio, Tex. Cells were harvested and analyzed by flow cytometry. Each dot on the dot plots of FIGS. 1, 3, 5, 7, 9, and 11 represents one cell. Five thousand cells were assessed for forward scatter (FS), as a function of cell size, versus side scatter (SS), as a function of cellular granularity. The upper ellipse represents live cells by these criterion and the lower ellipse in each dot plot represents the dead cells.
Statistical Analysis, Percents, and Geometric Mean Values Percents. Gating is a tool provided by Cell Quest software and allows for the analysis of a certain population of cells. Gating around both the live and dead cell populations gave a percent of the cell numbers that was in each population. After the gates were drawn, a percent value of dead cells was calculated by taking the number of dead cells divided by the number of total cells and multiplying by one hundred.
Referring to FIGS. 29 and 30, RD cells (rhabdomyosarcoma cells—not drug resistant), cultured as described above under “Materials and Methods” were untreated or treated with etomoxir, with 2-deoxy-D-glucose, or with a combination of etomoxir and 2-deoxy-D-glucose, at concentrations indicated in FIG. 29 for 24 hours. Cells were harvested and analyzed by flow cytometry. […] The percent of cell deaths for RD cells after 24 hours was: (a) 31% when untreated, (b) 57% when treated with etomoxir alone, (c) 46% when treated with 2-deoxy-D-glucose alone, and (d) 66% when treated with the combination of etomoxir and 2-deoxy-D-glucose.
Referring to FIGS. 33 and 34, RD cells, cultured as described in Example 22, were untreated or treated with etomoxir, with 2-deoxy-D-glucose, or with a combination of etomoxir and 2-deoxy-D-glucose, at concentrations indicated in FIG. 33 for 48 hours. Cells were harvested and analyzed by flow cytometry. […] The percent of cell deaths for RD cells after 48 hours was: (a) 36% when untreated, (b) 64% when treated with etomoxir alone, (c) 63% when treated with 2-deoxy-D-glucose alone, and (d) 68% when treated with the combination of etomoxir and 2-deoxy-D-glucose.

[3] = system: human leukemia HL60 cells; experiment: DCFDA staining of HL60 cells; details: 24 hours of incubation, FIG. 14
Description: Flow Cytometry. Cells were harvested, counted, and resuspended at 10^6 cells/100 μl of PBS containing 2.5% fetal calf serum in preparation for flow cytometric analysis. Cells were stained for intracellular H202 using 6-carboxy-2′,7′-dichlorodihydrofluorescein diacetate (DCF-DA, Molecular Probes, Eugene, Oreg.). Briefly, cells were incubated at 37° with 1 mM DCF-DA for 20 minutes, washed twice in PBS containing 2.5% fetal calf serum and analyzed flow cytometrically. Mitochondrial membrane potential was assessed using Mitotracker Red (CM-H2XROS, Molecular Probes, Eugene, Oreg.). The cells were resuspended in PBS containing 2.5% fetal calf serum containing a final concentration of 0.5 micromolar Mitotracker dye. The cells were incubated at 37° for 20 minutes, washed twice in PBS containing 2.5% fetal calf serum and analyzed flow cytometrically. Data were acquired on a Coulter Elite Epics or Excel flow cytometer (Coulter, Hialeah, Fla.) and analyzed with CellQuest software, (Becton Dickinson, San Jose, Calif.). […] Each sample population was classified for cell size (forward scatter) and complexity (side scatter), gated on a population of interest and evaluated using 5,000 cells. […]
The effects of etomoxir on human leukemia HL60 cells was determined. […]

**Q.** With `CCOC(=O)C1(CCCCCCOc2ccc(Cl)cc2)CO1` (centres unmarked) [etomoxir, 2-(6-(4-chlorophenoxy)-hexyl)-oxirane-2-carboxylic acid ethyl ester] as the compound, how does the “cell surface Fas” value ([1]; cultured with etomoxir for 24 hours, FIG. 7) read?
**A.** significant increases

**Q.** What about the “methotrexate-induced increases in Fas” value ([1]; etomoxir with methotrexate, FIG. 8) of the same compound?
**A.** increases

**Q.** What about the “percent of cell deaths” value ([2]; 24 hours, concentrations as in FIG. 29) of the same compound?
**A.** 57%

**Q.** And the “percent of cell deaths” value ([2]; 48 hours, concentrations as in FIG. 33)?
**A.** 64%

**Q.** What about the “reactive oxygen intermediates (DCFDA staining)” value [3] of the same compound?
**A.** increases
